Laboratory results: ChEMBL document CHEMBL1156829 (Proc Natl Acad Sci U S A, 2008)
Structures can show the parent of a compound that is named as a salt.

How the values were obtained:
Plasmodium falciparum [1] = assay: NOVARTIS: Inhibition of Plasmodium falciparum W2 (drug-resistant) proliferation in erythrocyte-based infection assay; format: functional, organism-based; conditions: Plasmodium falciparum, W2; read-out: EC50
Plasmodium falciparum [2] = assay: NOVARTIS: Inhibition of Plasmodium falciparum 3D7 (drug-susceptible) proliferation in erythrocyte-based infection assay; format: functional, organism-based; conditions: Plasmodium falciparum, 3D7
[3] = NOVARTIS: Cytotoxicity against human hepatocellular carcinoma cell line (Huh7); format: toxicity, cell-based, Huh-7; conditions: Huh7 cells (hepatocellular carcinoma cell line)

Compound | EC50 (Plasmodium falciparum [1]) [µM] | EC50 (Plasmodium falciparum [2]) [µM] | CC50 [3] [µM]
COCCNC(=S)N(Cc1ccc(F)cc1)Cc1cc2ccc(C)c(C)c2[nH]c1=O | 0.0642 | 0.412 | > 10
CC(=O)OCN1C(=O)N(COC(C)=O)C2C1N(COC(C)=O)C(=O)N2COC(C)=O (stereo unspecified) | 4.22 | > 11.6 | > 100
CCCC(C)C(C(=O)Nc1c(C)cccc1C)N1C(=O)c2cc(NC(C)=O)ccc2NC(=O)[C@@H]1CCC(=O)O (stereo partly specified) | > 0.163 | 1.46 | 8.51
COc1cc2c(cc1/C=C(/C#N)c1cccc(C)c1)OCO2 | > 1.25 | > 1.06 | > 10
Clc1ccc2c(c1)CN(C1CCCCC1)CO2 | 0.2 | 2.29 | 71
Cc1ccc(C(=O)Nc2ccc(-c3nc4cc5ccccc5cc4[nH]3)cc2)cc1[N+](=O)[O-] | 3.98 | 4.3 | > 100
CC(C)(C)OCCN(CC(O)CN(Cc1ccccc1)C(=O)NC(c1ccccc1)c1ccccc1)S(=O)(=O)c1ccccc1 (stereo unspecified) | < 0.0264 | 1.1 | > 10
c1cncc(-c2cc(N3CCc4ccccc4C3)nc(-c3ccncc3)n2)c1 | 0.794 | 0.602 | > 10
CC1=C(C(=O)OC(C)C)C(c2ccc([N+](=O)[O-])cc2)C2=C(CCCC2=O)N1 (stereo unspecified) | 1.14 | 6.23 | > 100
CC(=O)N(C1=C(N(C)C)C(=O)c2ccccc2C1=O)c1ccc(Cl)cc1 | 0.0691 | 0.0314 | 5.46
CN1CCc2c(sc3nc(SCc4ccc(F)cc4)n(-c4ccccc4)c(=O)c23)C1 | 0.32 | 0.498 | > 100
Cc1ccc(Nc2cc(C)nc(NCc3ccccc3)n2)cc1 | 0.132 | 0.112 | 10.5
Cc1cc(C)cc(NC(=O)CCCn2c3ccccc3c(=O)c3cc(C)ccc32)c1 | 3.61 | 4.28 | > 100
Cc1cc(Nc2cccc(C(F)(F)F)c2)nc2ccc(NC(=O)c3cncc(Br)c3)cc12 | 3 | 2.45 | > 84.4
COc1cccc(-c2cncc(-c3cncc(OC)c3)n2)c1 | 0.803 | 0.701 | > 100
O=C1CC(c2ccc(O)cc2)C2=C(CC(c3ccccc3Cl)CC2=O)N1 (stereo unspecified) | 0.391 | 0.672 | > 100
COc1ccc(CCNC(=O)CN(c2ccc(OC)c(OC)c2)S(=O)(=O)c2ccc(C)cc2)cc1OC | 1.33 | > 12.5 | > 100
CCCc1c(C)nc2ccccc2c1O | 0.429 | 0.63 | > 100
O=C(ON=C(c1ccncc1)c1ccc(Cl)cc1)c1ccccc1 | > 0.048 | 1.24 | > 10
CN(C)CCN(C)Cc1cc(Br)cs1 | 1.01 | > 2.34 | > 100
N=c1n(Cc2ccccc2)c2ccccc2n1CC(O)c1ccc(Cl)c(Cl)c1 (stereo unspecified) | 0.0436 | 0.214 | 6.59
CC(C)[C@@]1(NC(=O)[C@@H]2C[C@@H]3c4cccc5[nH]cc(c45)C[C@H]3N(C)C2)O[C@@]2(O)[C@@H]3CCCN3C(=O)[C@H](CC3CCCCC3)N2C1=O | 0.768 | 1.16 | > 11.4
CCn1ccnc1CC1COc2ccccc2O1 (stereo unspecified) [IMILOXAN HYDROCHLORIDE] | 0.443 | > 1.04 | > 10

Compound | EC50 (Plasmodium falciparum [1]) [µM] | EC50 (Plasmodium falciparum [2]) [µM] | CC50 [3] [µM]
N#Cc1c2c(c(N3CCN(C4CCCCC4)CC3)n3c1nc1ccccc13)CCC2 | 0.511 | 0.183 | > 100
O=S(=O)(Nc1cc(Sc2nc[nH]n2)c(O)c2ccccc12)c1ccc(F)cc1 | 0.323 | 1.6 | 20.5
COC(=O)c1c(NC(=O)c2c(-c3ccccc3)noc2C)sc2c1CCC2 | 1.33 | 2.98 | > 100
O=C(Nc1ccccc1Cl)C1CCCN1C(=O)OCc1ccccc1 (stereo unspecified) | > 0.929 | > 1.25 | > 10
CCN(CC)S(=O)(=O)c1ccc2[nH]cc(C(=O)NCCCN3CCN(c4ccc(OC)cc4)CC3)c(=O)c2c1 | 0.42 | 2.34 | 51.6
COc1ccc(C(=O)Oc2ccccc2-c2nc3cc(C)ccn3c2NC(C)(C)CC(C)(C)C)c(OC)c1 | 0.283 | 1.63 | > 10
CC(C)NC(=O)N1CCN(C(=O)C(Cc2c[nH]c3ccccc23)NC(=O)Nc2cccc(C#N)c2)CC1C (stereo unspecified) | 0.211 | 0.0567 | > 10
CCCCOC(=O)Cc1ccc(N)cc1 | 0.284 | 0.462 | 5.97
COc1cccc(/C=C2/SC(=Nc3ccccc3)NC2=O)c1OC | > 1.25 | > 1.15 | > 10
CCC[n+]1cccc2ccc3cccnc3c21 | 0.756 | 0.21 | 44.3
O=c1c2ccccc2nc2n1CCN2Cc1ccc(Cl)cc1 | 1.63 | 1.61 | > 100
CCCC(=O)NC(c1ccc(Cl)cc1)c1ccc2cccnc2c1O (stereo unspecified) | 0.171 | 0.288 | 10.3
COc1ccccc1Nc1nc2cc([N+](=O)[O-])c([N+](=O)[O-])cc2nc1Nc1cccc(Cl)c1 | 0.0822 | > 1.25 | > 10
COC(=O)c1ccccc1NC(=O)CN(C)c1nc(-c2ccc(OC)cc2)no1 | 0.449 | 0.786 | > 10
CCCCCCCSc1nsc(NC(=O)CCC)n1 | < 0.00651 | > 1.31 | > 10
O=C(Cn1c2ccccc2c(=O)c2ccccc21)Nc1ccc(Cl)cc1C(=O)c1ccccc1 | 0.925 | 0.817 | > 100
COc1cc(CN2CCC3(CC2)CC3C(=O)NCCc2ccccc2OC)ccc1O (stereo unspecified) | 0.739 | 2.35 | > 100
CC(=O)N(C1=C(N2CCCCC2)C(=O)c2ccccc2C1=O)c1ccccc1C | 0.0181 | 0.034 | 20.2
Cc1ccc(C(=O)NC2CCN(S(=O)(=O)c3c(C)cc(C)cc3C)CC2)cc1 | 0.472 | 1.45 | > 100
COc1ccc(OC)c(/C=C/C(=O)Nc2ccc3nc(N4CCN(C)CC4)cc(C)c3c2)c1 | > 0.873 | > 1.25 | > 10
COC(=O)C1=C(C)NC2=C(C(=O)CC(c3ccc(OC)c(OC)c3)C2)C1c1ccc([N+](=O)[O-])cc1 (stereo unspecified) | 0.704 | 2.68 | > 100
C=CCn1c(SCC(=O)Nc2ccccc2C)nc2sc(C)cc2c1=O | 1.8 | 4.28 | > 100
CC(C)CNC(=O)c1cnc(NCCCn2ccnc2)nc1NCC1CCCCC1 | 0.379 | 0.278 | > 10

Compound | EC50 (Plasmodium falciparum [1]) [µM] | EC50 (Plasmodium falciparum [2]) [µM] | CC50 [3] [µM]
COc1ccc(Nc2nc(N3CCCC3)c3ccccc3n2)cc1 | 0.334 | 0.285 | 10.2
CC(Sc1nnc2c3ccccc3n(Cc3ccccc3)c2n1)C(=O)N1CCN(C(=O)C(c2ccccc2)c2ccccc2)C(C)C1 (stereo unspecified) | 0.127 | 0.914 | > 10
CN1CCN(c2nc(NCCNc3ccc([N+](=O)[O-])cc3)c3ccccc3n2)CC1 | 0.424 | 0.537 | 19
C=C[C@H]1CN2CC[C@H]1C[C@H]2[C@H](OC(=O)CCCC)c1ccnc2ccccc12 | 0.452 | 0.942 | > 10
C=CCSc1nc2sc3c(c2c(=O)n1-c1ccccc1)CCN(C)C3 | 0.228 | 0.632 | > 100
OC(CNCc1ccccc1)Cn1c2ccc(Br)cc2c2cc(Br)ccc21 (stereo unspecified) | 0.0135 | 0.311 | 9.3
C=C[C@H]1CN2CC[C@H]1C[C@@H]2[C@@H](OC(=O)c1ccc(OC)cc1)c1ccnc2ccccc12 | 0.0185 | 0.243 | 2.61
CCCCC(CC)C(=O)N(CCCC(C)Nc1cc(OC)cc2cccnc12)Cc1ccc(OC)c(OC)c1 (stereo unspecified) | 0.328 | 0.442 | > 10
Oc1ccc(Br)c(C(Nc2ccccn2)c2ccc3cccnc3c2O)c1 (stereo unspecified) | 0.281 | 0.555 | 15.7
CCOC(=O)c1cn(CC)c2cc(N3CCCCC3)c(F)cc2c1=O | 0.336 | 0.166 | > 100
CCCCCN(C(=O)c1ccc(C(C)(C)C)cc1)C(CC)c1nc2ccccc2c(=O)n1-c1ccccc1OC (stereo unspecified) | > 1.25 | > 0.117 | > 10
COc1cccc(CN2CCC(O)(c3ccc4oc(C(=O)Nc5ccc(Cl)cc5)cc4c3)CC2)c1 | 4.06 | 2.16 | 24.7
CCCN(CC(=O)Nc1cc(C(C)(C)C)nn1-c1cccc(C)c1C)C(=O)C1CCCCC1 | > 1.39 | 1.18 | 9.45
CCN(CC)CCN1C(=O)c2ccccc2NC1c1ccc(N(C)C)cc1 (stereo unspecified) | 0.157 | 0.285 | > 100
Cc1cc(Nc2ccccc2)nc(Nc2ccccc2)n1 | 0.248 | 0.259 | 20
COC(=O)C1=C(C)NC2=C(C(=O)CC(c3ccc(Cl)cc3)C2)C1c1ccccc1 (stereo unspecified) | 0.152 | 0.342 | > 100
CCC1=NN2C(=N)/C(=C/c3cn(CCOc4ccccc4C(C)CC)c4ccccc34)C(=O)N=C2S1 (stereo unspecified) | > 0.865 | > 1.25 | > 10
CCCCCCN(C(=O)c1ccc(CC)cc1)C(CC)c1nc2ccccc2c(=O)n1-c1cccc(Cl)c1 (stereo unspecified) | 0.782 | 0.781 | > 10
Cn1nc(C(F)(F)F)c(-c2ccc(Br)cc2)c1NC(=O)Nc1ccc(F)cc1F | 0.206 | 0.211 | 42.8
O=C(Oc1ccccc1-c1nc2ccccn2c1NC1CCCCC1)c1ccc([N+](=O)[O-])cc1Cl | 0.352 | > 1.25 | > 10
COc1ccc(C=C2N=C(c3ccc(Cl)cc3)N(c3ccccc3)C2=O)cc1OC | 1.99 | > 12.5 | > 100
